For 8 molecules, TGI results are on record in PubChem BioAssay (NCI).

Experiment in all cases: NCI-60 cell line screen, 48 h
Experiment [1] deals with ACHN renal.
In experiment [2] the test system is COLO 205 colon.
The subject of experiment [3] is HOP-92 NSCLC.
Experiment [4] deals with K-562 leukemia.
Experiment [5] has as its system MDA-MB-231 breast.
The test system of experiment [6] is NCI-H226 lung.
For experiment [7], the system named is NCI-H460 lung.
Experiment [8] concerns NCI/ADR-RES ovarian.
Experiment [9] concerns OVCAR-5 ovarian.
The subject of experiment [10] is RXF 393 renal.
The test system of experiment [11] is SN12C renal.
Experiment [12] deals with SNB-19 CNS.
For experiment [13], the system named is SNB-75 CNS.
Experiment [14] concerns SR leukemia.
The subject of experiment [15] is TK-10 renal.
The subject of experiment [16] is U251 CNS.
Experiment [17] concerns UACC-62 melanoma.
Experiment [18] relates to UO-31 renal.
In experiment [19] the test system is DU-145 prostate.

SMILES strings stand for the structures.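 The compound was tested at five concentrations on cells cultured in 96-well plates, with a 48-hour exposure period. TGI marks complete inhibition of growth.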 Where only a bound is given, the exact number is not on record here.

Regarding `CC(C)(C)n1c(=O)n(-c2ccccc2)n(C(C)(C)C)c1=O`, the TGI in [1], in [2], in experiment [3], in experiment [4], in experiment [5] and in [6] was > 100 µM each time. Further, the TGI in experiment [7], in [8], in experiment [9], in [10], in [11] and in [12] was > 100 µM throughout. Besides, the TGI in [13], in experiment [14], in [15], in experiment [16], in experiment [17] and in [18] was > 100 µM throughout.
For the molecule `Cc1c(NC(=O)CSC(=S)N(C)C)c(=O)n(-c2ccccc2)n1C`, the TGI in [1], in experiment [2], in [19], in experiment [4], in [5] and in [6] was > 100 µM in each case. Further, the TGI in experiment [7], in experiment [8], in experiment [9], in experiment [10], in [11] and in experiment [12] was > 100 µM throughout. Moreover, the TGI in experiment [13], in experiment [14], in experiment [15], in experiment [16] and in experiment [18] was > 100 µM each time.
In the case of `CCOC(=O)CC(=O)Nc1cccc2sc3ncccc3c(=O)c12`, the TGI in experiment [1], in [2], in experiment [19], in experiment [4], in [5] and in experiment [6] was > 100 µM in each case. The TGI in [7] was > 100 µM; in [8], > 100 µM; in experiment [9], > 100 µM; in experiment [10] it was 35.8 µM; in experiment [11], > 100 µM; in experiment [12], > 100 µM. For the same molecule, the TGI in experiment [13], in experiment [14], in experiment [15], in experiment [16], in [17] and in [18] was > 100 µM each time.
For `O=C(O/N=c1/ccc(=O)/c(=N\OC(=O)c2ccccc2)c1=O)c1ccccc1`, the TGI in experiment [1], in experiment [2], in experiment [3], in experiment [4], in experiment [6] and in experiment [7] was > 100 µM throughout. The TGI in [8], in [9], in experiment [10], in experiment [11], in [12] and in experiment [13] was > 100 µM throughout. For the same molecule, the TGI in [14], in experiment [15], in experiment [16] and in experiment [18] was > 100 µM in each case.
As to `CN(/N=C/C=N/N(C)C1=NCCCN1)C1=NCCCN1`, the TGI in experiment [1], in experiment [2], in experiment [3], in experiment [4], in experiment [5] and in experiment [6] was > 100 µM each time. Moreover, the TGI in experiment [7], in experiment [8], in experiment [9], in [10], in experiment [11] and in [12] was > 100 µM throughout. The TGI in experiment [13], in [14], in [15], in [16], in [17] and in [18] was > 100 µM throughout.
For `Cc1cc(S(=O)(=O)NC2=NCCCN2)c(S)cc1Cl`, the TGI in [1] was > 100 µM; in [2], > 100 µM; in [19], > 100 µM; in [4], 75.9 µM; in experiment [5] it was > 100 µM; in [6], 88.2 µM. The TGI in experiment [7], in [8], in [9], in experiment [10], in [11] and in experiment [12] was > 100 µM each time. Besides, the TGI in experiment [13] is > 100 µM; in [14], 56.1 µM; in experiment [15], 74.7 µM; in experiment [16], > 100 µM; in experiment [17], 90.3 µM; in [18], > 100 µM.
As for `O=C(Sc1n[nH]c(=O)[nH]c1=O)c1cccc2nc3ccccc3nc12`, the TGI was > 100 µM in [1]; 5.76 µM in experiment [2]; 36.2 µM in experiment [19]; > 100 µM in [3]; > 100 µM in experiment [4]; > 100 µM in experiment [5]. Moreover, the TGI in experiment [6], in experiment [7], in [8], in experiment [9], in [10] and in experiment [11] was > 100 µM each time. Moreover, the TGI in experiment [12], in experiment [14], in [15], in experiment [16] and in [17] was > 100 µM in each case.
Take `COc1ccc(/C=C2\Sc3nnc(-c4ccccc4)n3N=C2c2cc(F)c(Cl)cc2Cl)cc1OC`: the TGI in [1], in experiment [19], in [3], in experiment [4], in experiment [5] and in experiment [6] was > 100 µM each time. Besides, the TGI was > 100 µM in [7]; > 100 µM in experiment [8]; > 100 µM in experiment [9]; 54.4 µM in experiment [10]; > 100 µM in experiment [14]; > 100 µM in experiment [15]. Also, the TGI in experiment [16] and in experiment [18] was > 100 µM each time.
